# Several values for one entry are separate records, joined by “and”; a condition that tells them apart may be missing. Identical values can stand only once. Entries after “also recorded” stand apart in the source; their conditions may differ.
# Test system: scopolamine-treated cynomolgus monkeys
# Experiment: Scopolamine-induced impairment of vsPAL task performance, treatment + scopolamine
# Format: in vivo, cynomolgus monkeys (Macaca Fasicularis)
# Conditions: for Cohen's d / effect r: 4-stimuli; for mean (cohen's d calculations): eventual correct; for % Completion / Average Response Latency (Avg Rsp Lat) / Eventual Correct, 2 Stimuli / Eventual Correct, 3 Stimuli / Eventual Correct, 4 Stimuli / Eventual Correct, Overall Mean % Correct / Initial Correct, 3 Stimuli / Initial Correct, 4 Stimuli / Initial Correct, Overall Mean % Correct / Initial correct, 2 Stimuli: im + Scopolamine
# [1] = 0.03 mg/kg + scopolamine vs vehicle+scopolamine, eventual accuracy
# [2] = 0.1 mg/kg + scopolamine vs vehicle+scopolamine, eventual accuracy
# [3] = 0.3 mg/kg + scopolamine vs vehicle+scopolamine, eventual accuracy
# [4] = BMS-933043 0.03 mg/kg, group MEAN
# [5] = BMS-933043 0.03 mg/kg, individual animals, 0.03 mg/kg
# [6] = BMS-933043 0.1 mg/kg, group MEAN
# [7] = BMS-933043 0.1 mg/kg, individual animals, 0.1 mg/kg
# [8] = BMS-933043 0.3 mg/kg, group MEAN
# [9] = BMS-933043 0.3 mg/kg, individual animals, 0.3 mg/kg
# [10] = BMS-933043 1.0 mg/kg, group MEAN
# [11] = BMS-933043 1.0 mg/kg, individual animals, 1 mg/kg
# [12] = all doses of the study, for EVP-6124 study (1)
# [13] = compound 0.03 mg/kg i.m. + Scopolamine
# [14] = compound 0.10 mg/kg i.m. + Scopolamine
# [15] = compound 0.30 mg/kg i.m. + Scopolamine
# [16] = compound 1.00 mg/kg i.m. + Scopolamine
compound,measurement,setting,value
"c1cn(-c2cc(NC3=NC[C@@]4(CN5CCC4CC5)O3)ncn2)cn1 [BMS-933043, (2R)-N-(6-(1H-imidazol-1-yl)-4-pyrimidinyl)-4'H-spiro[4-azabicyclo[2.2.2]octane-2,5'-[1, 3]oxazol]-2'-amine]",Cohen's d,[1],0.64
same,effect r,[1],0.306
same,Cohen's d,"0.03 mg/kg + scopolamine vs vehicle+scopolamine, eventual accuracy, listed as 933043",0.643
same,Cohen's d,[2],0.73
same,effect r,[2],0.343
same,Cohen's d,"0.1 mg/kg + scopolamine vs vehicle+scopolamine, eventual accuracy, listed as 933043",0.7311
same,Cohen's d,[3],1.2
same,effect r,[3],0.51
same,effect on scopolamine-induced impairment of eventual accuracy,"0.03, 0.1 and 0.3 mg/kg i.m., 4-stimuli condition",significantly ameliorated; also recorded: significantly reversed
same,mean (cohen's d calculations),"0.03 mpk + scop, 4-stimuli condition",81.7
same,mean (cohen's d calculations),"0.1 mpk + scop, 4-stimuli condition",81.4
same,mean (cohen's d calculations),"0.3 mpk + scop, 4-stimuli condition",90.0
same,% Completion,[4],80.9%
same,Average Response Latency (Avg Rsp Lat),[4],2008.1 ms
same,"Eventual Correct, 2 Stimuli",[4],100.0%
same,"Eventual Correct, 3 Stimuli",[4],88.6%
same,"Eventual Correct, 4 Stimuli",[4],81.7%
same,"Eventual Correct, Overall Mean % Correct",[4],89.8%
same,"Initial Correct, 3 Stimuli",[4],58.6%
same,"Initial Correct, 4 Stimuli",[4],38.3%
same,"Initial Correct, Overall Mean % Correct",[4],63.6%
same,"Initial correct, 2 Stimuli",[4],90.0%
same,"Eventual Correct, 2 Stimuli","BMS-933043 0.03 mg/kg, individual animals",100.0%
same,% Completion,[5],81.8% and 100.0% and 81.3% and 32.1% and 72.4% and 98.5%
same,Average Response Latency (Avg Rsp Lat),[5],2181.5 ms and 1558.2 ms and 1198.4 ms and 2787.4 ms and 1505.0 ms and 2151.4 ms and 2675.1 ms
same,"Eventual Correct, 3 Stimuli",[5],90.0% and 100.0% and 50.0%
same,"Eventual Correct, 4 Stimuli",[5],100.0% and 90.0% and 40.0% and 80.0%
same,"Eventual Correct, Overall Mean % Correct",[5],96.7% and 76.7% and 100.0% and 75.0% and 90.0% and 93.3%
same,"Initial Correct, 3 Stimuli",[5],70.0% and 60.0% and 40.0% and 80.0% and 20.0%
same,"Initial Correct, 4 Stimuli",[5],40.0% and 10.0% and 80.0% and 20.0%
same,"Initial Correct, Overall Mean % Correct",[5],70.0% and 66.7% and 56.7% and 76.7% and 65.0% and 40.0%
same,"Initial correct, 2 Stimuli",[5],100.0% and 90.0% and 80.0%
same,% Completion,[6],84.8%
same,Average Response Latency (Avg Rsp Lat),[6],1958.7 ms
same,"Eventual Correct, 2 Stimuli",[6],100.0%
same,"Eventual Correct, 3 Stimuli",[6],98.6%
same,"Eventual Correct, 4 Stimuli",[6],81.4%
same,"Eventual Correct, Overall Mean % Correct",[6],93.3%
same,"Initial Correct, 3 Stimuli",[6],75.7%
same,"Initial Correct, 4 Stimuli",[6],35.7%
same,"Initial Correct, Overall Mean % Correct",[6],66.7%
same,"Initial correct, 2 Stimuli",[6],88.6%
same,"Eventual Correct, 2 Stimuli","BMS-933043 0.1 mg/kg, individual animals",100.0%
same,% Completion,[7],83.0% and 98.5% and 77.8% and 81.4% and 55.7% and 97.1% and 100.0%
same,Average Response Latency (Avg Rsp Lat),[7],1783.8 ms and 1549.9 ms and 1223.3 ms and 2854.5 ms and 1899.4 ms and 1717.2 ms and 2683.0 ms
same,"Eventual Correct, 3 Stimuli",[7],90.0% and 100.0%
same,"Eventual Correct, 4 Stimuli",[7],90.0% and 80.0% and 70.0% and 60.0% and 100.0%
same,"Eventual Correct, Overall Mean % Correct",[7],93.3% and 90.0% and 86.7% and 100.0% and 96.7%
same,"Initial Correct, 3 Stimuli",[7],80.0% and 60.0% and 70.0% and 90.0% and 100.0%
same,"Initial Correct, 4 Stimuli",[7],50.0% and 10.0% and 40.0% and 30.0% and 70.0%
same,"Initial Correct, Overall Mean % Correct",[7],76.7% and 53.3% and 66.7% and 90.0% and 60.0%
same,"Initial correct, 2 Stimuli",[7],100.0% and 90.0% and 80.0%
same,% Completion,[8],86.7%
same,Average Response Latency (Avg Rsp Lat),[8],1774.3 ms
same,"Eventual Correct, 2 Stimuli",[8],100.0%
same,"Eventual Correct, 3 Stimuli",[8],94.3%
same,"Eventual Correct, 4 Stimuli",[8],90.0%
same,"Eventual Correct, Overall Mean % Correct",[8],94.3%
same,"Initial Correct, 3 Stimuli",[8],68.6%
same,"Initial Correct, 4 Stimuli",[8],45.0%
same,"Initial Correct, Overall Mean % Correct",[8],67.6%
same,"Initial correct, 2 Stimuli",[8],91.4%
same,"Eventual Correct, 2 Stimuli","BMS-933043 0.3 mg/kg, individual animals",100.0%
same,% Completion,[9],86.3% and 100.0% and 97.7% and 32.1% and 95.8% and 95.1%
same,Average Response Latency (Avg Rsp Lat),[9],1690.5 ms and 1666.2 ms and 1269.7 ms and 2215.8 ms and 1344.9 ms and 1971.0 ms and 2262.1 ms
same,"Eventual Correct, 3 Stimuli",[9],100.0% and 60.0%
same,"Eventual Correct, 4 Stimuli",[9],80.0% and 100.0% and 90.0%
same,"Eventual Correct, Overall Mean % Correct",[9],93.3% and 100.0% and 80.0% and 96.7%
same,"Initial Correct, 3 Stimuli",[9],80.0% and 100.0% and 60.0% and 10.0% and 90.0%
same,"Initial Correct, 4 Stimuli",[9],60.0% and 40.0% and 50.0% and 30.0%
same,"Initial Correct, Overall Mean % Correct",[9],80.0% and 73.3% and 83.3% and 30.0% and 60.0%
same,"Initial correct, 2 Stimuli",[9],100.0% and 50.0% and 90.0%
same,% Completion,[10],71.6%
same,Average Response Latency (Avg Rsp Lat),[10],2029.0 ms
same,"Eventual Correct, 2 Stimuli",[10],100.0%
same,"Eventual Correct, 3 Stimuli",[10],97.1%
same,"Eventual Correct, 4 Stimuli",[10],65.7%
same,"Eventual Correct, Overall Mean % Correct",[10],87.6%
same,"Initial Correct, 3 Stimuli",[10],71.4%
same,"Initial Correct, 4 Stimuli",[10],41.4%
same,"Initial Correct, Overall Mean % Correct",[10],69.5%
same,"Initial correct, 2 Stimuli",[10],95.7%
same,"Eventual Correct, 2 Stimuli","BMS-933043 1.0 mg/kg, individual animals",100.0%
same,% Completion,[11],72.7% and 100.0% and 68.1% and 56.9% and 46.1% and 57.8%
same,Average Response Latency (Avg Rsp Lat),[11],2028.1 ms and 1536.5 ms and 1283.2 ms and 2484.6 ms and 1934.3 ms and 2639.0 ms and 2297.3 ms
same,"Eventual Correct, 3 Stimuli",[11],90.0% and 100.0%
same,"Eventual Correct, 4 Stimuli",[11],70.0% and 100.0% and 40.0% and 50.0% and 30.0%
same,"Eventual Correct, Overall Mean % Correct",[11],86.7% and 96.7% and 80.0% and 83.3% and 76.7% and 90.0% and 100.0%
same,"Initial Correct, 3 Stimuli",[11],50.0% and 80.0% and 90.0% and 70.0%
same,"Initial Correct, 4 Stimuli",[11],40.0% and 60.0% and 20.0% and 30.0% and 80.0%
same,"Initial Correct, Overall Mean % Correct",[11],63.3% and 76.7% and 60.0% and 86.7%
same,"Initial correct, 2 Stimuli",[11],100.0% and 90.0%
same,"Holm-Sidak Post-Hoc, Treatment+Scopolamine differs from Vehicle+Scopolamine: percent correct on initial attempt, 3-stimuli",all doses of the study,n.s.
same,"Holm-Sidak Post-Hoc, Treatment+Scopolamine differs from Vehicle+Scopolamine: Choice Response Latency",[12],n.s.
same,"Holm-Sidak Post-Hoc, Treatment+Scopolamine differs from Vehicle+Scopolamine: Percent Task Completed",[12],n.s.
same,"Holm-Sidak Post-Hoc, Treatment+Scopolamine differs from Vehicle+Scopolamine: percent correct on initial attempt, 2-stimuli",[12],n.s.
same,"Holm-Sidak Post-Hoc, Treatment+Scopolamine differs from Vehicle+Scopolamine: percent correct on initial attempt, 4 stimuli",[12],n.s.
same,"Percent Correct on Initial Attempt (SEM), 2 stimuli",[13],90.0% (3.1%)
same,"Percent Correct on Initial Attempt (SEM), 3 stimuli",[13],58.6% (8.0%)
same,"Percent Correct on Initial Attempt (SEM), 4 stimuli",[13],38.3% (9.8%)
same,"Percent Correct on Initial Attempt (SEM), 2 stimuli",[14],88.6% (3.4%)
same,"Percent Correct on Initial Attempt (SEM), 3 stimuli",[14],75.7% (5.7%)
same,"Percent Correct on Initial Attempt (SEM), 4 stimuli",[14],35.7% (8.1%)
same,"Percent Correct on Initial Attempt (SEM), 2 stimuli",[15],91.4% (7.0%)
same,"Percent Correct on Initial Attempt (SEM), 3 stimuli",[15],68.6% (11.2%)
same,"Percent Correct on Initial Attempt (SEM), 4 stimuli",[15],45.0% (5.6%)
same,"Percent Correct on Initial Attempt (SEM), 2 stimuli",[16],95.7% (2.0%)
same,"Percent Correct on Initial Attempt (SEM), 3 stimuli",[16],71.4% (5.9%)
same,"Percent Correct on Initial Attempt (SEM), 4 stimuli",[16],41.4% (8.3%)
same,dose/exposure range across which efficacy was retained,"eventual accuracy, scopolamine vsPAL",≥ 10 fold
same,Cohen's D values at maximally efficacious doses,large treatment effect sizes,> 8

# — paper PMC5736175, “Nicotinic alpha 7 receptor agonists EVP-6124 and BMS-933043, attenuate scopolamine-induced deficits in visuo-spatial paired associates learning” (PLoS ONE, 2017)
